Experimental data from US4621145A, “Process for preparing 5-vinyl-2-pyrrolidinone and intermediates therefor” (Merrell Dow Pharmaceuticals Inc., priority 1982, dated 1986).

Experiments:
GABA-T [1] = conditions: reported by Lippert et al. and Bouclier et al.; cited from earlier work
GABA-T enzyme = test: Biological activity of 4-amino-5-hexenoic acid enantiomers; conditions: GABA-T inhibition
GABA-T [2] = test: Irreversible inhibition of GABA-T in vivo
[3] = test system: GABA concentration in homogenates of the cortex; test: Chronic oral experiment in rats: GABA concentration in homogenates of the cortex; format: in vivo; conditions: oral daily 100 mg/kg, 24 hours after last dose, vs controls
Experimental: (§1) In a chronic experiment, a group of five rats was given oral daily doses of 100 mg/kg of (R)-4-aminohex-5-ynoic acid. A separate group of animals was used as control. Twenty-four hours after the last dose, the animals were sacrificed and the cortex was dissected from the rest of the brain.

GABA-T [4] = test: GABA-T activity in mice brain, test method of Jung et al., J. Neurochemistry; format: in vivo; conditions: 4 hours after injection
Text: (§2) The biochemical and pharmacological effects of 4-aminohex-5-ynoic acid are described in Jung et al., Biochem. and Biophys. Res. Comm., 67, 301 (1975); Jung et al., J. Neurochemistry, 28, 717 (1977); Jung et al., Biochemistry, 17, 2628 (1978); Bouclier et al., Eur. J. Biochem., 98, 363 (1979); Biochem. Pharmacology, 28, 1705 (1979); and Lippert et al., Brain Research Bull., 5, 375 (1980). […] For example, (R)-4-aminohex-5-ynoic acid gave the follow effects on GABA-T activity and GABA concentrations in mice brain using the test method of Jung et al., J. Neurochemistry, supra:
(§3) ^(a) 4 hours after injection of the test compound, i.p.

GABA-T [5] = test: Irreversible inhibition of GABA-T in vitro; format: biochemical
[6] = parameters: species or system rats; conditions: rat, in vivo, po, 100 mg/kg
[7] = test system: GABA concentrations in mice brain; test: GABA concentrations in mice brain, test method of Jung et al., J. Neurochemistry; format: in vivo; conditions: 4 hours after injection
Text: as §2, §3

[8] = parameters: species or system mice; conditions: mouse, in vivo, ip, 400 mg/kg
[9] = test system: convulsions and death, induced by mercaptopropionic acid; test: Protection of mice against effects induced by mercaptopropionic acid; format: in vivo; conditions: mercaptopropionic acid 53 mg/kg i.p. 6 hours after
GABA-T [10] = test: Chronic oral experiment in rats: GABA-T activity in homogenates of brain minus the cortex; format: in vivo; conditions: oral daily 100 mg/kg, 24 hours after last dose
Experimental: as §1

[11] = test system: γ-aminobutyric acid transaminase (GABA-T); conditions: background, U.S. Pat. No. 3,960,927 and literature; cited from earlier work
[12] = test system: level of γ-aminobutyric acid (GABA) in the CNS; conditions: background; cited from earlier work

For C#C[C@@H](N)CCC(=O)O [(S)-4-aminohex-5-ynoic acid], the “irreversible inhibition of GABA-T (reported as only active enantiomer)” value (GABA-T [1]) is listed as “irreversibly inhibit GABA-T”.
In the case of C=C[C@H](N)CCC(=O)O [(R)-4-amino-5-hexenoic acid], the “biological activity of the enantiomer” value (GABA-T enzyme) is reported as “biologically inactive”.
For C#C[C@H](N)CCC(=O)O [(R)-4-aminohex-5-ynoic acid, (R)-4-Aminohex-5-ynoic acid], the “irreversible inhibition of GABA-T” value (GABA-T [2]) was “irreversible inhibitor of GABA-T”, the “GABA concentration in homogenates of the cortex” value [3] was “approximately doubled” and the “% Inhibition of GABA-T” value (GABA-T [4]; 25 mg/kg i.p.) was 31%. The “% Inhibition of GABA-T” value (GABA-T [4]; 50 mg/kg i.p.) was 50%, the “% Inhibition of GABA-T” value (GABA-T [4]; 100 mg/kg i.p.) was 66% and the “% Inhibition of GABA-T” value (GABA-T [4]; 200 mg/kg i.p.) was 81%. The “irreversible inhibition of GABA-T” value (GABA-T [5]) was “irreversible inhibitor of GABA-T”, the body weight effect [6] was “lost body weight” and the “course of body weight and hair loss effects” value [6] was “appeared to disappear during the second week”. For the same compound, the hair loss [6] was “lost hair on their backs”, the “GABA Concentration % Control” value ([7]; 25 mg/kg i.p.) was 103 % Control and the “GABA Concentration % Control” value ([7]; 50 mg/kg i.p.) was 125 % Control. The “GABA Concentration % Control” value ([7]; 100 mg/kg i.p.) was 180 % Control, the “GABA Concentration % Control” value ([7]; 200 mg/kg i.p.) was 275 % Control and the death [8] was “dead”. The sedation [8] was “produced sedation”, the time to sedation [8] was at most 30 min and the “protection against convulsions and death induced by mercaptopropionic acid” value ([9]; 100 mg/kg i.p.) was “protect mice against convulsions and death”. The “protection against running fits” value ([9]; 100 mg/kg i.p.) was “no protection against running fits”, the “protection against convulsions and death induced by mercaptopropionic acid” value ([9]; 200 mg/kg i.p.) was “protect mice against convulsions and death” and the “protection against running fits” value ([9]; 200 mg/kg i.p.) was “no protection against running fits”. The “GABA-T activity decrease as compared to controls” value (GABA-T [10]) was 81%.
In the case of C=C[C@@H](N)CCC(=O)O [(S)-4-amino-5-hexenoic acid, (S)-4-Amino-5-hexenoic acid], the “biological activity of the enantiomer” value (GABA-T enzyme) is reported as “biologically active”.
For C=CC(N)CCC(=O)O (stereo not drawn) [4-Amino-5-hexenoic acid], the “irreversible inhibition of GABA-T” value [11] is listed as “irreversible inhibitor” and the “increase of GABA level in the CNS” value [12] is listed as “capable of increasing the level of γ-aminobutyric acid (GABA) in the CNS”.
